Where two headings read alike, the source gives them in different places.
Molecular target: T1, PDE9A2 (Homo sapiens, UniProt O76083)
T1 construct: purchased Reaction Biology Corporation, Malvern, Pa
Assay: Phosphodiesterase enzyme screening assay, PDE9A2
Format: biochemical
Conditions: read-out: Band (PDE9A2 IC50)
Source text: Compounds of the invention were screened against PDE1A, PDE1B, PDE2A, PDE3A, PDE3B, PDE4A1A, PDE4B1, PDE4D3, PDE5A1, PDE6C, PDE7A, PDE8A1, PDE9A2, PDE10A2 AND PDE11A isoforms of the phosphodiesterase enzyme to determine activity and overall selectivity through comparative analysis. […] Where 8-methoxy-IBMX and Zaprinast were used as reference inhibitors.
The phosphodiesterase enzyme isoforms were obtained from a commercial retailer (Reaction Biology Corporation, Malvern, Pa.) for use in the instant screening assay.
The analysis was completed using the Caliper LabChip 3000 and a 12-sipper LabChip. LabChip assays are separations-based, meaning that the product and substrate are electrophoretically separated, thereby minimizing interferences and yielding the highest data quality available on any screening platform. […] High Z′ values, few false positives, few false negatives and analytical quality reproducibility are the reasons cited for the increasing reliance on the LabChip assays.
The off-chip incubation mobility-shift phosphodiesterase assay uses a microfluidic chip to measure the conversion of a fluorescent cyclic AMP substrate to a 5′-AMP product, or a cyclic GMP substrate to a 5′-GMP product. The reaction mixture, from a microtiter plate well, is introduced through a capillary sipper onto the chip, where the fluorescent substrate and product are separated by electrophoresis and detected via laser-induced fluorescence. […] The precision of microfluidics allows researchers to detect subtle interactions between drug candidates and therapeutic targets.
Reactions were carried out in 100 mM HEPES (pH 7.5), 5 mM MgCl2, 1 mM DTT, 0.003% Brij, 4.0 μM cGMP substrate. The reaction was started by addition of cGMP or cAMP and incubated for 1 hour at R.T. The reaction was terminated by the addition of stop buffer containing 100 mM HEPES (pH 7.5), 15 mM EDTA, 0.015% Brij-35, 5% DMSO. Cyclic AMP/GMP substrate and 5′-AMP/5′-GMP product were separated by charge using electrophoretic mobility shift. Product formed was compared to control wells to determine inhibition or enhancement of enzyme activity.
Data points were averages of quadruplicate wells and error bars represented the SEM for each point.

[1] = Table 1, 10 concentrations, 4.0 μM cGMP substrate, 1 hour at R.T.
[2] = 4.0 μM cGMP substrate, 1 hour at R.T.
[3] = Table 2, 10 concentrations, 4.0 μM cGMP substrate, 1 hour at R.T.

T1 sequence (O76083 1-533 isoform O76083-2): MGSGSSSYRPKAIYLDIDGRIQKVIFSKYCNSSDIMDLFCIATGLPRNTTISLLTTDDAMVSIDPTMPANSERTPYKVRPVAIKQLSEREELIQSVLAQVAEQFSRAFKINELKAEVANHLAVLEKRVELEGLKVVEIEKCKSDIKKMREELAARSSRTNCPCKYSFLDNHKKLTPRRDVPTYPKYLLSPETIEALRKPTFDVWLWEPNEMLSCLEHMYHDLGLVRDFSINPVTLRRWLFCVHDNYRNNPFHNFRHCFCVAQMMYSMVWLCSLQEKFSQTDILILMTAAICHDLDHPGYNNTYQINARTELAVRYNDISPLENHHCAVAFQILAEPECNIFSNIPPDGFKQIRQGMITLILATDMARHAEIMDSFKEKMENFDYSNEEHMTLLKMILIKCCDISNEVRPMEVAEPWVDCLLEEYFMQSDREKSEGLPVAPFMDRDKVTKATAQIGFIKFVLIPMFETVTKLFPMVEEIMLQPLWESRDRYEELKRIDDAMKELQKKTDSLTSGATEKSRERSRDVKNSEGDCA

## CC1CN(C(C)c2ccccc2)CC1c1nn2c(C3CCOCC3)ncc2c(=O)[nH]1 (single isomer, unassigned; (+)) [listing 1 of 2 here]
[1]
  IC50: < 1 µM

## CC1CN(Cc2ccccc2C#N)CC1c1nn2c(C3CCOCC3)ncc2c(=O)[nH]1 (single isomer, unassigned; (-)) [(−)-2-(((3,4-trans)-3-methyl-4-(4-oxo-7-(tetrahydro-2H-pyran-4-yl)-3,4-dihydroimidazo[5,1-f][1,2,4]triazin-2-yl)pyrrolidin-1-yl)methyl)benzonitrile]
[1]
  IC50: < 1 µM

## CC1CN(C(=O)c2cncnc2)CC1c1nn2c(C3CCOCC3)ncc2c(=O)[nH]1 (single isomer, unassigned; (-)) [(−)-2-((3,4-trans)-4-methyl-1-(pyrimidine-5-carbonyl)pyrrolidin-3-yl)-7-(tetrahydro-2H-pyran-4-yl)imidazo[5,1-f][1,2,4]triazin-4(3H)-one]
[1]
  IC50: < 1 µM

## CC1CN(Cc2ncccn2)CC1c1nn2c(-c3ccccc3C(F)(F)F)ncc2c(=O)[nH]1 (single isomer, unassigned; (+))
[2]
  IC50: < 1 µM

## Cc1ccc(Cl)cc1-c1ncc2c(=O)[nH]c([C@@H]3CNC[C@H]3C)nn12 (relative stereo) [(−)-7-(5-chloro-2-methylphenyl)-2-((3,4-trans)-4-methylpyrrolidin-3-yl)imidazo[5,1-f][1,2,4]triazin-4(3H)-one]
[1]
  IC50: 1 to 10 µM

## CSc1cnc(CN2CC(C)C(c3nn4c(C5CCOCC5)ncc4c(=O)[nH]3)C2)nc1 (single isomer, unassigned; (+)) [(+)-2-((3,4-trans)-4-methyl-1-((5-(methylthio)pyrimidin-2-yl)methyl)pyrrolidin-3-yl)-7-(tetrahydro-2H-pyran-4-yl)imidazo[5,1-f][1,2,4]triazin-4(3H)-one]
[3]
  IC50: < 1 µM

## CC1CN(Cc2cccc(C#N)c2)CC1c1nn2c(C3CCOCC3)ncc2c(=O)[nH]1 (single isomer, unassigned; (-)) [(−)-3-(((3,4-trans)-3-methyl-4-(4-oxo-7-(tetrahydro-2H-pyran-4-yl)-3,4-dihydroimidazo[5,1-f][1,2,4]triazin-2-yl)pyrrolidin-1-yl)methyl)benzonitrile]
[1]
  IC50: < 1 µM

## Cc1cnc(CN2C[C@@H](C)[C@H](c3nn4c(C5CCOCC5)ncc4c(=O)[nH]3)C2)cn1 (relative stereo) [(+)-2-((3,4-trans)-4-methyl-1-((5-methylpyrazin-2-yl)methyl)pyrrolidin-3-yl)-7-(tetrahydro-2H-pyran-4-yl)imidazo[5,1-f][1,2,4]triazin-4(3H)-one]
[1]
  IC50: < 1 µM

## Cc1ccc(F)cc1-c1ncc2c(=O)[nH]c(C3CN(Cc4ncccn4)CC3C)nn12 (single isomer, unassigned; (+)) [(+)-7-(5-fluoro-2-methylphenyl)-2-((3,4-trans)-4-methyl-1-(pyrimidin-2-ylmethyl)pyrrolidin-3-yl)imidazo[1,5-f][1,2,4]triazin-4(3H)-one]
[1]
  IC50: < 1 µM

## CC1CN(Cc2ccccc2)CC1c1nn2c(C3CCCC3)ncc2c(=O)[nH]1 (single isomer, unassigned; (+)) [(+)-2-((3,4-trans)-1-benzyl-4-methylpyrrolidin-3-yl)-7-cyclopentylimidazo[5,1-f][1,2,4]triazin-4(3H)-one]
  IC50: < 1 µM

## CC1CN(S(=O)(=O)c2ccccc2)CC1c1nn2c(C3CCOCC3)ncc2c(=O)[nH]1 (single isomer, unassigned; (+)) [(+)-2-((3,4-trans)-4-methyl-1-(phenylsulfonyl)pyrrolidin-3-yl)-7-(tetrahydro-2H-pyran-4-yl)imidazo[5,1-f][1,2,4]triazin-4(3H)-one]
[1]
  IC50: < 1 µM

## CC1CN(Cc2ccc(F)cc2)CC1c1nn2c(C3CCOCC3)ncc2c(=O)[nH]1 (single isomer, unassigned; (-)) [(−)-2-((3,4-trans)-1-(4-fluorobenzyl)-4-methylpyrrolidin-3-yl)-7-(tetrahydro-2H-pyran-4-yl)imidazo[5,1-f][1,2,4]triazin-4(3H)-one]
[1]
  IC50: < 1 µM

## CC1CN(C(=O)c2ccncc2)CC1c1nn2c(C3CCOCC3)ncc2c(=O)[nH]1 (single isomer, unassigned; (-)) [(−)-2-((3,4-trans)-1-isonicotinoyl-4-methylpyrrolidin-3-yl)-7-(tetrahydro-2H-pyran-4-yl)imidazo[5,1-f][1,2,4]triazin-4(3H)-one]
[1]
  IC50: < 1 µM

## CC1CN(Cc2ncc(F)c(N3CCOCC3)n2)CC1c1nn2c(C3CCOCC3)ncc2c(=O)[nH]1 (single isomer, unassigned; (+)) [(+)-2-((3,4-trans)-1-((5-fluoro-4-morpholinopyrimidin-2-yl)methyl)-4-methylpyrrolidin-3-yl)-7-(tetrahydro-2H-pyran-4-yl)imidazo[5,1-f][1,2,4]triazin-4(3H)-one]
[3]
  IC50: < 1 µM

## CC1CN(C(C)c2ccccc2)CC1c1nn2c(C3CCOCC3)ncc2c(=O)[nH]1 (single isomer, unassigned; (+)) [listing 2 of 2 here]
[1]
  IC50: 1 to 10 µM

## CC1CN(S(=O)(=O)c2ccccc2C#N)CC1c1nn2c(C3CCOCC3)ncc2c(=O)[nH]1 (single isomer, unassigned; (-)) [(−)-2-(((3,4-trans)-3-methyl-4-(4-oxo-7-(tetrahydro-2H-pyran-4-yl)-3,4-dihydroimidazo[5,1-f][1,2,4]triazin-2-yl)pyrrolidin-1-yl)sulfonyl)benzonitrile]
[1]
  IC50: < 1 µM

## CC1CN(C(=O)c2ccc(F)cc2)CC1c1nn2c(C3CCOCC3)ncc2c(=O)[nH]1 (single isomer, unassigned; (+)) [(+)-2-((3,4-trans)-1-(4-fluorobenzoyl)-4-methylpyrrolidin-3-yl)-7-(tetrahydro-2H-pyran-4-yl)imidazo[5,1-f][1,2,4]triazin-4(3H)-one]
[1]
  IC50: 1 to 10 µM

## CC1CN(C(C)c2ccccc2)CC1c1nn2c(C3CCOCC3)ncc2c(=O)[nH]1 (single isomer, unassigned; (-))
[1]
  IC50: < 1 µM

## CC1CN(Cc2nc3ccccn3n2)CC1c1nn2c(-c3ccccc3F)ncc2c(=O)[nH]1 (single isomer, unassigned; (+)) [(+)-2-((3,4-trans)-1-([1,2,4]triazolo[1,5-a]pyridin-2-ylmethyl)-4-methylpyrrolidin-3-yl)-7-(2-fluorophenyl)imidazo[5,1-f][1,2,4]triazin-4(3H)-one]
[2]
  IC50: < 1 µM

## CC1CN(Cc2ccccc2)CC1c1nn2c(CC(F)(F)F)ncc2c(=O)[nH]1 (single isomer, unassigned; (+)) [(+)-2-((3,4-trans)-1-benzyl-4-methylpyrrolidin-3-yl)-7-(2,2,2-trifluoroethyl) imidazo [5,1-f] [1,2,4] triazin-4 (3H)-one]
[2]
  IC50: < 1 µM

## CC1CN(S(=O)(=O)c2ccc(F)cc2)CC1c1nn2c(C3CCOCC3)ncc2c(=O)[nH]1 (single isomer, unassigned; (-)) [(−)-2-((3,4-trans)-1-((4-fluorophenyl)sulfonyl)-4-methylpyrrolidin-3-yl)-7-(tetrahydro-2H-pyran-4-yl)imidazo[5,1-f][1,2,4]triazin-4(3H)-one]
[1]
  IC50: 1 to 10 µM

## CC1CN(Cc2ncccn2)CC1c1nn2c(-c3cccc(F)c3)ncc2c(=O)[nH]1 (single isomer, unassigned; (+)) [(+)-7-(3-fluorophenyl)-2-((3,4-trans)-4-methyl-1-(pyrimidin-2-ylmethyl)pyrrolidin-3-yl)imidazo[5,1-f][1,2,4]triazin-4(3H)-one]
  IC50: < 1 µM

## CC1CN(Cc2ccccc2)CC1c1nn2c(C3CCC(F)(F)CC3)ncc2c(=O)[nH]1 (single isomer, unassigned; (-)) [(−)-2-((3,4-trans)-1-benzyl-4-methylpyrrolidin-3-yl)-7-(4,4-difluorocyclohexyl)imidazo[5,1-f][1,2,4]triazin-4(3H)-one]
[1]
  IC50: < 1 µM

## CC1CN(Cc2cn3ccccc3n2)CC1c1nn2c(-c3ccccc3)ncc2c(=O)[nH]1 (single isomer, unassigned; (+)) [(+)-2-((3,4-trans)-1-(imidazo[1,2-a]pyridin-2-ylmethyl)-4-methylpyrrolidin-3-yl)-7-phenylimidazo[5,1-f][1,2,4]triazin-4(3H)-one]
  IC50: < 1 µM

## CCS(=O)(=O)N1CC(C)C(c2nn3c(C4CCOCC4)ncc3c(=O)[nH]2)C1 (single isomer, unassigned; (+)) [(+)-2-((3,4-trans)-1-(ethylsulfonyl)-4-methylpyrrolidin-3-yl)-7-(tetrahydro-2H-pyran-4-yl)imidazo[5,1-f][1,2,4]triazin-4(3H)-one]
[1]
  IC50: 1 to 10 µM

## CC1CN(Cc2ccccc2)CC1c1nn2c(-c3ccccc3C(F)(F)F)ncc2c(=O)[nH]1 (single isomer, unassigned; (+))
[2]
  IC50: < 1 µM
